PubChem BioAssay (NCI)
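A five-concentration, 48-hour dose response in 96-well plates underlies each endpoint, interpolated linearly between surrounding concentrations. Here, GI50 denotes the concentration required for 50% inhibition of growth. At the TGI there is no net growth.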

Tests used:
Assay in all cases: DTP human tumour cell line panel, 48 h
[1] = system: EKVX NSCLC
[2] = system: NCI-H522 lung
[3] = system: SR leukemia
[4] = system: NCI-H460 lung
[5] = system: SNB-75 CNS
[6] = system: PC-3 prostate
[7] = system: SF-295 CNS
[8] = system: DU-145 prostate
[9] = system: MDA-MB-231 breast
[10] = system: OVCAR-8 ovarian
[11] = system: UACC-257 melanoma
[12] = system: BT-549 breast
[13] = system: HT29 colon
[14] = system: NCI-H226 lung
[15] = system: SN12C renal
[16] = system: HOP-92 NSCLC
[17] = system: MCF7 breast
[18] = system: UO-31 renal
[19] = system: SNB-19 CNS
[20] = system: RXF 393 renal
[21] = system: MOLT-4 leukemia
[22] = system: HS 578T breast
[23] = system: A498 renal
[24] = system: ACHN renal
[25] = system: OVCAR-4 ovarian
[26] = system: 786-0 renal
[27] = system: SK-MEL-5 melanoma
[28] = system: SK-MEL-28 melanoma
[29] = system: CCRF-CEM leukemia
[30] = system: SW-620 colon
[31] = system: HCC-2998 colon
[32] = system: UACC-62 melanoma
[33] = system: HOP-62 NSCLC
[34] = system: SF-539 CNS
[35] = system: T-47D breast
[36] = system: M14 melanoma
[37] = system: RPMI-8226 leukemia
[38] = system: MALME-3M melanoma
[39] = system: NCI/ADR-RES ovarian
[40] = system: OVCAR-5 ovarian
[41] = system: TK-10 renal
[42] = system: SK-OV-3 ovarian
[43] = system: A549 NSCLC
[44] = system: HL-60(TB) leukemia
[45] = system: KM12 colon
[46] = system: CAKI-1 renal
[47] = system: SF-268 CNS
[48] = system: U251 CNS
[49] = system: HCT-116 colon
[50] = system: IGROV1 ovarian
[51] = system: COLO 205 colon
[52] = system: MDA-MB-435
[53] = system: HCT-15 colon
[54] = system: SK-MEL-2 melanoma
[55] = system: LOX IMVI melanoma
[56] = system: OVCAR-3 ovarian
[57] = system: K-562 leukemia

With `N#Cc1c(-n2c(Br)c(Br)c3cc(Br)ccc32)[nH]c2c(Br)cc(Br)cc12` as the molecule, how does the GI50 [1] read?
The GI50 was 2.04 µM.

And the TGI [1]?
Its TGI is greater than 50 µM.

And the GI50 [2]?
The GI50 was 0.788 µM.

What about the TGI [2] of the same molecule?
Its TGI is 2.56 µM.

What about the GI50 [3] of the same molecule?
The GI50 was 1.22 µM.

What about the TGI [3] of the same molecule?
The TGI was 6.12 µM.

What about the GI50 [4] of the same molecule?
The GI50 was 1.48 µM.

What about the TGI [4] of the same molecule?
The TGI was 6.03 µM.

And the GI50 [5]?
The GI50 was 0.954 µM.

And the TGI [5]?
The TGI was 3.79 µM.

And the GI50 [6]?
Its GI50 is 0.982 µM.

And the TGI [6]?
Its TGI is 3.99 µM.

What about the GI50 [7] of the same molecule?
Its GI50 is 0.878 µM.

What about the TGI [7] of the same molecule?
The TGI was 2 µM.

What about the GI50 [8] of the same molecule?
Its GI50 is 2.25 µM.

What about the TGI [8] of the same molecule?
Its TGI is greater than 50 µM.

What about the GI50 [9] of the same molecule?
The GI50 was 1.45 µM.

What about the TGI [9] of the same molecule?
The TGI was greater than 20.6 µM.

And the GI50 [10]?
Its GI50 is 1.66 µM.

And the TGI [10]?
Its TGI is greater than 29.4 µM.

What about the GI50 [11] of the same molecule?
Its GI50 is 1.38 µM.

What about the TGI [11] of the same molecule?
The TGI was 5.74 µM.

And the GI50 [12]?
Its GI50 is 1.16 µM.

What about the TGI [12] of the same molecule?
Its TGI is 2.64 µM.

What about the GI50 [13] of the same molecule?
Its GI50 is 1.48 µM.

What about the TGI [13] of the same molecule?
Its TGI is 5.23 µM.

And the GI50 [14]?
Its GI50 is 1.14 µM.

And the TGI [14]?
The TGI was 3.2 µM.

What about the GI50 [15] of the same molecule?
The GI50 was 1.27 µM.

What about the TGI [15] of the same molecule?
The TGI was greater than 17.9 µM.

What about the GI50 [16] of the same molecule?
Its GI50 is 0.383 µM.

And the TGI [16]?
Its TGI is 1.9 µM.

What about the GI50 [17] of the same molecule?
The GI50 was 1.16 µM.

And the TGI [17]?
Its TGI is 7.11 µM.

What about the GI50 [18] of the same molecule?
Its GI50 is 5.45 µM.

And the TGI [18]?
The TGI was 16.1 µM.

What about the GI50 [19] of the same molecule?
Its GI50 is 1.34 µM.

What about the TGI [19] of the same molecule?
The TGI was greater than 50 µM.

And the GI50 [20]?
The GI50 was 0.904 µM.

What about the TGI [20] of the same molecule?
Its TGI is 3.48 µM.

What about the GI50 [21] of the same molecule?
The GI50 was 1.31 µM.

And the TGI [21]?
The TGI was 4.09 µM.

What about the GI50 [22] of the same molecule?
The GI50 was 1.06 µM.

And the TGI [22]?
The TGI was 3.56 µM.

What about the GI50 [23] of the same molecule?
The GI50 was 0.767 µM.

And the TGI [23]?
Its TGI is 2.4 µM.

And the GI50 [24]?
Its GI50 is 3.23 µM.

And the TGI [24]?
The TGI was greater than 50 µM.

And the GI50 [25]?
Its GI50 is 1.57 µM.

What about the TGI [25] of the same molecule?
Its TGI is greater than 50 µM.

What about the GI50 [26] of the same molecule?
The GI50 was 1.58 µM.

What about the TGI [26] of the same molecule?
Its TGI is 8.78 µM.

And the GI50 [27]?
Its GI50 is 0.907 µM.

What about the TGI [27] of the same molecule?
The TGI was 1.91 µM.

And the GI50 [28]?
The GI50 was 1.49 µM.

And the TGI [28]?
The TGI was 8.53 µM.

And the GI50 [29]?
The GI50 was 1.38 µM.

And the TGI [29]?
The TGI was greater than 18.2 µM.

And the GI50 [30]?
Its GI50 is 1.59 µM.

And the TGI [30]?
The TGI was greater than 50 µM.

What about the GI50 [31] of the same molecule?
Its GI50 is 1.32 µM.

What about the TGI [31] of the same molecule?
Its TGI is 15.7 µM.

And the GI50 [32]?
The GI50 was 1.14 µM.

And the TGI [32]?
Its TGI is 3.21 µM.

And the GI50 [33]?
Its GI50 is 1.38 µM.

And the TGI [33]?
Its TGI is 4.14 µM.

And the GI50 [34]?
Its GI50 is 1.47 µM.

What about the TGI [34] of the same molecule?
The TGI was greater than 39.6 µM.

And the GI50 [35]?
The GI50 was 1.09 µM.

What about the TGI [35] of the same molecule?
The TGI was 6.48 µM.

What about the GI50 [36] of the same molecule?
The GI50 was 1.49 µM.

What about the TGI [36] of the same molecule?
The TGI was 7.6 µM.

And the GI50 [37]?
Its GI50 is 0.859 µM.

And the TGI [37]?
Its TGI is 2.56 µM.

And the GI50 [38]?
Its GI50 is 1.68 µM.

What about the TGI [38] of the same molecule?
The TGI was 7.21 µM.

And the GI50 [39]?
Its GI50 is 1.2 µM.

What about the TGI [39] of the same molecule?
The TGI was 3.63 µM.

What about the GI50 [40] of the same molecule?
Its GI50 is 2.95 µM.

What about the TGI [40] of the same molecule?
The TGI was greater than 50 µM.

And the GI50 [41]?
The GI50 was 1.59 µM.

And the TGI [41]?
Its TGI is 4.54 µM.

And the GI50 [42]?
Its GI50 is 1.41 µM.

What about the TGI [42] of the same molecule?
The TGI was 4.18 µM.

And the GI50 [43]?
Its GI50 is 1.73 µM.

And the TGI [43]?
The TGI was greater than 50 µM.

What about the GI50 [44] of the same molecule?
Its GI50 is 1.24 µM.

And the TGI [44]?
Its TGI is 2.95 µM.

And the GI50 [45]?
The GI50 was 1.45 µM.

What about the TGI [45] of the same molecule?
The TGI was 6.41 µM.

And the GI50 [46]?
The GI50 was 1.55 µM.

What about the TGI [46] of the same molecule?
The TGI was 9.73 µM.

What about the GI50 [47] of the same molecule?
The GI50 was 1.5 µM.

And the TGI [47]?
The TGI was greater than 50 µM.

And the GI50 [48]?
Its GI50 is 1.19 µM.

What about the TGI [48] of the same molecule?
Its TGI is greater than 31.4 µM.

And the GI50 [49]?
The GI50 was 0.986 µM.

And the TGI [49]?
The TGI was 2.99 µM.

What about the GI50 [50] of the same molecule?
Its GI50 is 2.14 µM.

And the TGI [50]?
The TGI was greater than 50 µM.

What about the GI50 [51] of the same molecule?
Its GI50 is 1.1 µM.

What about the TGI [51] of the same molecule?
Its TGI is 3.09 µM.

What about the GI50 [52] of the same molecule?
Its GI50 is 2.02 µM.

What about the TGI [52] of the same molecule?
The TGI was 9.38 µM.

And the GI50 [53]?
Its GI50 is 0.938 µM.

What about the TGI [53] of the same molecule?
Its TGI is greater than 18.3 µM.

What about the GI50 [54] of the same molecule?
The GI50 was 0.882 µM.

And the TGI [54]?
Its TGI is 1.91 µM.

And the GI50 [55]?
Its GI50 is 5.74 µM.

What about the TGI [55] of the same molecule?
Its TGI is 15.7 µM.

What about the GI50 [56] of the same molecule?
The GI50 was 1.94 µM.

What about the TGI [56] of the same molecule?
The TGI was greater than 50 µM.

And the GI50 [57]?
Its GI50 is 0.735 µM.

What about the TGI [57] of the same molecule?
The TGI was greater than 50 µM.
